Read-outs that look alike come from different tables or passages of the source. Numbered stars: 1 amine (or outer) side, 2 acyl side, 3 side chain; on linkers, the order of the positions; unused ones are H or OH. Bridge positions count the residues as written; N and C are the ends. Square brackets hold non-standard residues; d marks the D form. Peptide text beside a SMILES is read from it. ξ: configuration not given here. ξAbu(3ξ-yl) = CC(C(N[*:1])C(=O)[*:2])[*:3]; pGlu = O=C1CC[C@@H](C(=O)O)N1; ξC = NC(CS)C(=O)O
Assays:
[1] = target: T1, HEK293 cells expressing recombinant APJ receptors (Homo sapiens, UniProt P35414); assay: Forskolin-stimulated cAMP assay (HTRF); assay type: cell-based; details: 10 μM forskolin, 0.5 mM IBMX, 40 min; read-out: Relative EC50 (nM), cAMP
T1 construct: expressed in transfected cells; host or cells: HEK293
T1 sequence (P35414 1-380): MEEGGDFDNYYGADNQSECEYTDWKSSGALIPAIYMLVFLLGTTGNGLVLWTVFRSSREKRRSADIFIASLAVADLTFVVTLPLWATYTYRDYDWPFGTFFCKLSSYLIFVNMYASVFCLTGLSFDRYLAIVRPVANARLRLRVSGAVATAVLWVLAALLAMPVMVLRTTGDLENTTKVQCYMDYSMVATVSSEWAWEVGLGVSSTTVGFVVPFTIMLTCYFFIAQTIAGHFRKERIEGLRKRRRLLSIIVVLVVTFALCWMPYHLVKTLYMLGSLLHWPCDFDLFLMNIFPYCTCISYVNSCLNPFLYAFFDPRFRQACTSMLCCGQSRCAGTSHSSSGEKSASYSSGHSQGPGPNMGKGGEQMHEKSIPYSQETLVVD
Protocol: Cyclic AMP level in HEK293 cells expressing recombinant APJ receptors is assayed by an HTRF competitive immunoassay. Cells at a density of 4000 cells/well are resuspended in assay buffer (HBSS containing Ca^2+ and Mg^2+ supplemented with 0.1% BSA and 5 mM HEPES) and added to the assay plate. Incubation for 40 min at room temperature is started with the addition of increasing concentrations of the compounds containing 10 μM forskolin and 0.5 mM IBMX. Reaction is stopped by addition of lysis buffer including d2-labeled cAMP, followed by addition of cryptate-labeled anti-cAMP monoclonal antibody, according to the manufacturer instructions. Time-resolved fluorescence at 620 and 665 nm is measured in an Envision instrument after 2 hour incubation at room temperature in the dark. cAMP content in the samples is determined by interpolation in a cAMP standard curve.

[2] = Stability of apelin analogs in rat plasma; assay type: in vitro ADME
Protocol: Stability of apelin analogs in rat plasma. […] Samples were quenched by acidifying to final concentration of 5% TFA. Samples were analyzed on HPLC. Peak heights were plotted as relative to the initial peak heights.

hAPJ [3] = target: T2, hAPJ (Homo sapiens, UniProt P35414); assay: hAPJ β-arrestin recruitment assay (PathHunter, CHO-K1); assay type: cell-based; details: for EC50: 90 min incubation at 37° C., read-out: Relative EC50, Arrestin recruitment
T2 construct: host or cells: CHO-K1
T2 sequence (P32121 whole entry partner, one chain of several): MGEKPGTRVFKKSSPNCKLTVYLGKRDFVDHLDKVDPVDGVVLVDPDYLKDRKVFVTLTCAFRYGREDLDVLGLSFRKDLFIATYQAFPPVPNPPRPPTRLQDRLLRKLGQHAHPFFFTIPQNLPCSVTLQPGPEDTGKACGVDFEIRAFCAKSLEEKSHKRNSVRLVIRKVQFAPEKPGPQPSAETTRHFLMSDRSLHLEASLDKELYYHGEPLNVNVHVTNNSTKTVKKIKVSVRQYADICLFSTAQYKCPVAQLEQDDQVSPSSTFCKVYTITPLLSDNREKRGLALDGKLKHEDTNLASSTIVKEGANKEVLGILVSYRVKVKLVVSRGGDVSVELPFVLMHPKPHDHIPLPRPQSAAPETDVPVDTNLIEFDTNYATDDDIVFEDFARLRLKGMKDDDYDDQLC
Protocol: Stimulation of hAPJ interaction with 6-arrestin is studied using the PathHunter™ system from DiscoveRx. CHO-K1 cell line was engineered to co-express the ProLink/Enzyme donor (PK)-tagged APJ and the enzyme activator (EA)-tagged 6-arrestin fusion proteins. Upon GPCR activation, enzyme fragment complementation occurs, to produce an active β-Gal enzyme. These cells are seeded at a density of 15000 cells/well. […] Following 90 min incubation at 37° C. with the compounds, cells are lysed and incubated with PathHunter reagent for 1 hour at room temperature. Samples are then read with an ultrasensitive luminescence protocol using an Envision instrument (Perkin Elmer).

hAPJ [4] = target: T3, hAPJ (Homo sapiens, UniProt P35414); assay: hAPJ receptor internalization assay (APJ-GFP translocation, HEK293); assay type: cell-based; parameters: expressed in transfected cells; host or cells: HEK293, adenoviral transduction (Ad-GFP-hAPJ); details: 500 nM max, read-out: Relative EC50 (nM), hAPJ internalisation
T3 sequence (P35414 1-380): T1 sequence (P35414 1-380)
Protocol: HEK293 cells are seeded 24 hours prior to experiment at 50% confluence in 2×F75 flasks. The next morning, cells are trypsinized, vortexed for 60 seconds and passed through a 40 micron mesh filter. Cells are resuspended at a density of 300,000 cells/ml in OptiMEM+2% FBS, and Ad-GFP-hAPJ virus is added at an MOI of 1 PFU/cell. Cells are vortexed and dispensed into 96 well clear bottom, black dishes at a concentration of 10,000 cells/well. Cells are maintained at room temperature for 30 minutes to allow cell attachment to the dish prior to Incubation overnight at 37° C. in a 5% CO2 incubator. Next morning, apelin analogs are added in a concentration response curve (500 nM max). APJ-GFP translocation is observed and documented on Olympus FV con-focal microscope.

hAPJ [5] = target: T3, hAPJ; assay: APJ competition binding assay ([125I]-Apelin 13, SPA, HEK293 membranes); parameters: expressed in transfected cells; host or cells: HEK293, adenoviral transduction (Ad-GFP-hAPJ); details: competition with 0.06 nM [Glp65,Nle75,Tyr77][125I]-Apelin 13; read-out: Relative IC50, hAPJ BINDING
Protocol: [Glp^65, Nle^75, Tyr^77][^125I]-Apelin 13 binding experiments are carried out in SPA 96-well format. Membranes used in this assay are prepared from HEK293 cells stably expressing either recombinant hAPJ or rAPJ. The incubation is initiated by the addition of a mixture of WGA PVT SPA beads (0.5 mg/well) and 0.08 μg of membranes to an assay buffer (25 mM HEPES, 10 mM MgCl2, 1 mM CaCl2, 0.1% BSA, pH7.4) containing 0.06 nM [Glp^65, Nle^75, Tyr^77][^125I]-Apelin 13 and increasing concentrations of the tested compound (10 point concentration response curves). Non-specific binding is determined in the presence of 100 nM apelin 17. Samples are incubated during eight hours at room temperature (22° C.). Then, 96-well plates are read in a Microbeta Trilux.

hAPJ [6] = target: T3, hAPJ; assay: cAMP assay (DiscoverX); assay type: cell-based
Protocol: (§1) (Me)lan apelin variants were tested with cAMP and beta arrestin assays from the company DiscoverX.

hAPJ [7] = target: T3, hAPJ; assay: beta arrestin assay (DiscoverX); assay type: cell-based; details: for Ratio β-arrestin/cAMP: ratio of β-arrestin EC50 to cAMP EC50; for EC50: read-out: β-arrestin EC50
Protocol: as §1

[8] = tested on: human immunodeficiency virus; details: cited from earlier work

With CSCC[C@H](NC(=O)[C@@H]1CCCN1C(=O)C1CSC(C)C(NC(=O)[C@H](CC(C)C)NC(=O)[C@H](CCCNC(=N)N)NC(=O)[C@@H]2CCCN2C(=O)[C@H](CCCNC(=N)N)NC(=O)[C@@H]2CCC(=O)N2)C(=O)N[C@@H](Cc2c[nH]cn2)C(=O)N[C@@H](CCCCN)C(=O)N1)C(=O)N1CCC[C@H]1C(=O)N[C@@H](Cc1ccccc1)C(=O)O (stereo partly shown) [pEApeM5, pERPRLmelanHKmelanPMPF] ([pGlu]RPRL[ξAbu(3ξ-yl)]HK[ξC]PMPF-OH; thioether 6-9; C-terminus assumed) the EC50 [1] was 29.3 nM, the half-life at 0.1 mg/ml ([2]; rat, plasma, pH 7.4) was 9 h and the “activity in arrestin recruitment assay” value (hAPJ [3]) was “significant activity”. The EC50 (hAPJ [3]) was 14.1 nM, the EC50 (hAPJ [4]) was 1.25 nM and the IC50 (hAPJ [5]) was 115 nM. For the same compound, the EC50 (hAPJ [6]) was 7 nM, the “Ratio β-arrestin/cAMP” value (hAPJ [7]) was 9 and the EC50 (hAPJ [7]) was 67 nM.
In the case of CSCC[C@H](NC(=O)[C@@H]1CCCN1C(=O)CNC(=O)[C@H](CCCCN)NC(=O)[C@H](Cc1c[nH]cn1)NC(=O)[C@H](CO)NC(=O)[C@H](CC(C)C)NC(=O)[C@H](CCCNC(=N)N)NC(=O)[C@@H]1CCCN1C(=O)[C@H](CCCNC(=N)N)NC(=O)[C@@H](N)CCC(N)=O)C(=O)N1CCC[C@H]1C(=O)N[C@@H](Cc1ccccc1)C(=O)O [reference compound], the half-life at 0.1 mg/ml ([2]; 10% rat plasma, pH 7.4, 37° C., 0.1 mg/ml, read-out: T50 stability in rat plasma (converted)) is given as 1 h and the “blocking of HIV entry into cells” value [8] is given as “poorly blocks”.
In the case of CSCC[C@H](NC(=O)C1CSC(C)C(NC(=O)[C@H](CC(C)C)NC(=O)[C@H](CCCNC(=N)N)NC(=O)[C@@H]2CCCN2C(=O)[C@H](CCCNC(=N)N)NC(=O)[C@@H]2CCC(=O)N2)C(=O)N[C@@H](Cc2c[nH]cn2)C(=O)N[C@@H](CCCCN)C(=O)NCC(=O)N1)C(=O)N1CCC[C@H]1C(=O)N[C@@H](Cc1ccccc1)C(=O)O (stereo partly shown) [pEApeM8, pERPRLmeLanHKGmeLanMPF] ([pGlu]RPRL[ξAbu(3ξ-yl)]HKG[ξC]MPF-OH; thioether 6-10; C-terminus assumed), the EC50 [1] is reported as > 300 nM, the half-life at 0.1 mg/ml ([2]; rat, plasma, pH 7.4) is reported as 24 h and the EC50 (hAPJ [3]) is reported as > 300 nM. The EC50 (hAPJ [4]) was > 1000 nM, the IC50 (hAPJ [5]) was > 1000 nM and the EC50 (hAPJ [6]) was 125 nM. For the same compound, the “Ratio β-arrestin/cAMP” value (hAPJ [7]) was >8 and the EC50 (hAPJ [7]) was > 1000 nM.
For CSCC[C@H](NC(=O)[C@@H]1CCCN1C(=O)CNC(=O)C1CSC(C)C(NC(=O)[C@H](CC(C)C)NC(=O)[C@H](CCCNC(=N)N)NC(=O)[C@@H]2CCCN2C(=O)[C@H](CCCNC(=N)N)NC(=O)[C@@H]2CCC(=O)N2)C(=O)N[C@@H](Cc2c[nH]cn2)C(=O)N[C@@H](CCCCN)C(=O)N1)C(=O)N1CCC[C@H]1C(=O)O (stereo partly shown) [pEApeM6deltaF, pERPRLmeLanHKmeLanGPMP] ([pGlu]RPRL[ξAbu(3ξ-yl)]HK[ξC]GPMP-OH; thioether 6-9; C-terminus assumed), the EC50 (hAPJ [4]) was > 1000 nM, the EC50 (hAPJ [6]) was 125 nM and the “Ratio β-arrestin/cAMP” value (hAPJ [7]) was 3. For the same compound, the EC50 (hAPJ [7]) was 385 nM.
With CSCC[C@H](NC(=O)[C@@H]1CCCN1C(=O)CNC(=O)[C@H](CCCCN)NC(=O)C1CSC(C)C(NC(=O)[C@H](CCCNC(=N)N)NC(=O)[C@@H]2CCCN2C(=O)[C@H](CCCNC(=N)N)NC(=O)[C@@H]2CCC(=O)N2)C(=O)N[C@@H](CC(C)C)C(=O)N[C@@H](C)C(=O)N1)C(=O)N1CCC[C@H]1C(=O)N[C@@H](Cc1ccccc1)C(=O)O (stereo partly shown) [pEApeI4a, pERPRmeLanLAmeLanKGPMPF] ([pGlu]RPR[ξAbu(3ξ-yl)]LA[ξC]KGPMPF-OH; thioether 5-8; C-terminus assumed) the half-life at 0.1 mg/ml ([2]; rat, plasma, pH 7.4) was 2 h, the EC50 (hAPJ [6]) was 12.8 nM and the “Ratio β-arrestin/cAMP” value (hAPJ [7]) was 87. The EC50 (hAPJ [7]) was 1110 nM.
For CSCC[C@@H]1NC(=O)[C@@H]2CCCN2C(=O)CNC(=O)C(NC(=O)[C@H](Cc2c[nH]cn2)NC(=O)[C@H](C)NC(=O)[C@H](CC(C)C)NC(=O)[C@H](CCCNC(=N)N)NC(=O)[C@@H]2CCCN2C(=O)[C@H](CCCNC(=N)N)NC(=O)[C@@H]2CCC(=O)N2)CSCC(C(=O)N[C@@H](Cc2ccccc2)C(=O)O)NC1=O (stereo partly shown) [pEApeT8cS], the half-life at 0.1 mg/ml ([2]; rat, plasma, pH 7.4) was 8 h, the EC50 (hAPJ [6]) was 2 nM and the “Ratio β-arrestin/cAMP” value (hAPJ [7]) was 122. It also gave an EC50 (hAPJ [7]) of 245 nM.

From patent publication US20170107257A1, “CYCLIC APELIN ANALOGS” (LANTHIOPEP B.V., priority 2014, published 2017)
